Experimental findings from patent US6552062B1, “Indazole derivatives with 5-HT2 receptor activity” (Vernalis Research Limited, priority 1998, dated 2003) are described below.

pEC50, pKi: −log10 of the molar value. Counter-ions that a name gives are not always drawn.

T2 sequence (P41595 whole entry): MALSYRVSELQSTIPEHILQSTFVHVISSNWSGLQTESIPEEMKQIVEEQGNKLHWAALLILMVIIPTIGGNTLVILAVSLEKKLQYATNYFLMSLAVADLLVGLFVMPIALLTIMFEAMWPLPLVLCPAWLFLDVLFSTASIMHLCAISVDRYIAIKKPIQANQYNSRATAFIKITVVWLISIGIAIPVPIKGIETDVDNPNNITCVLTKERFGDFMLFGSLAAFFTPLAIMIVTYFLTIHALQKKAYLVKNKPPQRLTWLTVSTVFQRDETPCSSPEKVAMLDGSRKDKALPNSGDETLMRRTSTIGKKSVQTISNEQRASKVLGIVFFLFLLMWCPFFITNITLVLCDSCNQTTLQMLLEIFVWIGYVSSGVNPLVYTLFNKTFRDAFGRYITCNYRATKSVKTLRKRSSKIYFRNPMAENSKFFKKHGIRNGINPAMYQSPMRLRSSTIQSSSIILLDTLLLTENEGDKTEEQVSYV

For the first data set, the target named is T1, human 5-HT2A receptors (Homo sapiens, UniProt P28223).
T1 construct: expressed in transfected cells; host or cells: CHO cells
T1 sequence (P28223 whole entry): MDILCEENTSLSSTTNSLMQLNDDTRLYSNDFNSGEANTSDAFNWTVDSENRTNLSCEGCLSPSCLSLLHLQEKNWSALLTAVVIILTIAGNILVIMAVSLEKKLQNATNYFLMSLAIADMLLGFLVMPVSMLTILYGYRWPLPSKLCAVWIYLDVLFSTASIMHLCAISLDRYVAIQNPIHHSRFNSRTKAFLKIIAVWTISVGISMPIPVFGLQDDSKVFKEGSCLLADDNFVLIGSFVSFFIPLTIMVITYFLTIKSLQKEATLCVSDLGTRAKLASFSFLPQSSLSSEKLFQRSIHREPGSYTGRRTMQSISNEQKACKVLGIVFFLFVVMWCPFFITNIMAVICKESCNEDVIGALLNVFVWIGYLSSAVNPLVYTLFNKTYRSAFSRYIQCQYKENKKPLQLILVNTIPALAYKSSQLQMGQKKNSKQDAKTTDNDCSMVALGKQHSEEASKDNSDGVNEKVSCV
The data set is described as follows: Functional activity, FLIPR calcium assay, CHO cells expressing human 5-HT2A. It is filed as cell-based. The note with it: CHO cells, FLIPR, Fluo-3-AM; read-out: h5-HT2A EC50. Here is the method: (§1) The functional activity of compounds of formula (I) was assayed using a Fluorimetric Imaging Plate reader (FLIPR). CHO cells expressing the human 5-HT2C or human 5-HT2A receptors were counted and plated into standard 96 well microtitre plates on the day before testing to give a confluent monolayer. The cells were then dye loaded with the calcium sensitive dye, Fluo-3-AM. Unincorporated dye was removed using an automated cell washer to leave a total volume of 100 μL/well of assay buffer (Hanks balanced salt solution containing 20 mM Hepes and 2.5 mM probenecid). The drug (dissolved in 50 μL of the assay buffer) was added at a rate of 70 μL/sec to each well of the FLIPR 96 well plate during fluorescence measurements. The measurements were taken at 1 sec intervals and the maximum fluorescent signal was measured (approx 10-15 secs after drug addition) and compared with the response produced by 10 μM 5-HT (defined as 100%) to which it was expressed as a percentage response (relative efficacy). Dose response curves were constructed using Graphpad Prism (Graph Software Inc.).
In general, pEC50 refers to the EC50 on a negative log10 scale, so that one unit is a factor of ten. In the case of `COc1ccc2c(C)nn(C[C@H](C)N)c2c1` [Example 2, (S)-1-(6-Methoxy-3-methylindazol-1-yl)-2-propylamine Fumarate], the pEC50 is 6.97.
For `Cc1nn(C[C@H](C)N)c2cc(Cl)c(F)cc12` [Example 4, (S)-1-(6-Chloro-5-fluoro-3-methylindazol-1-yl)-2-propylamine Fumarate], the pEC50 was 6.86.
As for `Cc1nn(C[C@H](C)N)c2cc(F)c(F)cc12` [Example 3, (S)-1-(5,6-Difluoro-3-methylindazol-1-yl)-2-propylamine Fumarate], the pEC50 is 6.82.
In the case of `CCc1nn(C[C@H](C)N)c2cc(SC)ccc12` [Example 8, (S)-1-(3-Ethyl-6-methylthioindazol-1-yl)-2-propylamine Fumarate], the pEC50 was 6.55.
Consider `CCc1nn(C[C@H](C)N)c2cc(F)ccc12` [Example 6, (S)-1-(3-Ethyl-6-fluoroindazol-1-yl)-2-propylamine Fumarate], for which the pEC50 was 6.54.
Same read-out and setting: the result for `CCc1nn(C[C@H](C)N)c2cc(Br)ccc12` [Example 7, (S)-1-(6-Bromo-3-ethylindazol-1-yl)-2-propylamine Fumarate] reads 6.13.

Still in this data set, the particulars now being: maximum fluorescent signal relative to 10 μM 5-HT (defined as 100%).
With `COc1ccc2c(C)nn(C[C@H](C)N)c2c1` [Example 2, (S)-1-(6-Methoxy-3-methylindazol-1-yl)-2-propylamine Fumarate], the “h5-HT2A Relative Efficacy (%)” value is 59%.
Same read-out and setting: the result for `Cc1nn(C[C@H](C)N)c2cc(Cl)c(F)cc12` [Example 4, (S)-1-(6-Chloro-5-fluoro-3-methylindazol-1-yl)-2-propylamine Fumarate] reads 65%; that for `Cc1nn(C[C@H](C)N)c2cc(F)c(F)cc12` [Example 3, (S)-1-(5,6-Difluoro-3-methylindazol-1-yl)-2-propylamine Fumarate], 50%; that for `CCc1nn(C[C@H](C)N)c2cc(SC)ccc12` [Example 8, (S)-1-(3-Ethyl-6-methylthioindazol-1-yl)-2-propylamine Fumarate], 48%.
As for `CCc1nn(C[C@H](C)N)c2cc(F)ccc12` [Example 6, (S)-1-(3-Ethyl-6-fluoroindazol-1-yl)-2-propylamine Fumarate], the “h5-HT2A Relative Efficacy (%)” value is listed as 32%.
Same read-out and setting: the result for `CCc1nn(C[C@H](C)N)c2cc(Br)ccc12` [Example 7, (S)-1-(6-Bromo-3-ethylindazol-1-yl)-2-propylamine Fumarate] reads 39%.

Tested on in the next data set: not given
Experiment: not given
Conditions: not given
For orientation: melting point means the temperature of the solid-liquid transition. Take `CCc1nn(C[C@H](C)N)c2cc(SC)ccc12` (as salt: fumarate) [Example 8, (S)-1-(3-Ethyl-6-methylthioindazol-1-yl)-2-propylamine Fumarate]: the melting point was 147 to 149 °C.
On the same count and under the same terms, the result for `CCc1nn(C[C@H](C)N)c2cc(Br)ccc12` (as salt: fumarate) [Example 7, (S)-1-(6-Bromo-3-ethylindazol-1-yl)-2-propylamine Fumarate] reads 148 to 150 °C.
Same read-out and setting: with `Cc1nn(C[C@H](C)N)c2cc(Cl)c(F)cc12` (as salt: fumarate) [Example 4, (S)-1-(6-Chloro-5-fluoro-3-methylindazol-1-yl)-2-propylamine Fumarate] the figure was 158 to 159 °C; with `COc1ccc2c(C)nn(C[C@H](C)N)c2c1` (as salt: fumarate) [Example 2, (S)-1-(6-Methoxy-3-methylindazol-1-yl)-2-propylamine Fumarate], 180 to 181 °C; with `Cc1nn(C[C@H](C)N)c2cc(F)c(F)cc12` (as salt: fumarate) [Example 3, (S)-1-(5,6-Difluoro-3-methylindazol-1-yl)-2-propylamine Fumarate], 160 to 161 °C.
`CCc1nn(C[C@H](C)N)c2cc(F)ccc12` (as salt: fumarate) [Example 6, (S)-1-(3-Ethyl-6-fluoroindazol-1-yl)-2-propylamine Fumarate]: the melting point lay within 143 to 145 °C.

The next data set addresses T2, human 5-HT2B receptors (Homo sapiens, UniProt P41595).
T2 construct: expressed in transfected cells; host or cells: CHO cell line
The data set is described as follows: Binding to 5-HT2B receptor, [3H]-5-HT radioligand, Method (b). As to conditions: human 5-HT2B receptors in a CHO cell line, read-out: Method (b) Ki (2B). Here is the method:
(§2) The binding of compounds of formula I to serotonin receptors was determined in vitro by standard methods. The preparations were investigated in accordance with the assays given hereinafter.
Method (b): For the binding to the 5-HT2B receptor the 5-HT2B receptors were radiolabeled with [^3H]-5-HT. The affinity of the compounds for human 5-HT2B receptors in a CHO cell line was determined according to the procedure of K. Schmuck, C. Ullmer, P. Engels and H. Lubbert, FEBS Lett., 1994, 342, 85-90.
The term pKi denotes the Ki on a negative log10 scale, so that one unit is a factor of ten. `Cc1nn(CC(C)N)c2ccccc12` (racemic) [Example 1, (RS)-1-(3-Methylindazol-1-yl)-2-propylamine Fumarate]: the pKi is 6.62.
Still for that read-out and setting: the result for `COc1ccc2c(C)nn(C[C@H](C)N)c2c1` [Example 2, (S)-1-(6-Methoxy-3-methylindazol-1-yl)-2-propylamine Fumarate] reads 6.87; that for `Cc1nn(C[C@H](C)N)c2cc(Cl)c(F)cc12` [Example 4, (S)-1-(6-Chloro-5-fluoro-3-methylindazol-1-yl)-2-propylamine Fumarate], 7.59.
Still for that read-out and setting: with `Cc1nn(C[C@H](C)N)c2cc(F)c(F)cc12` [Example 3, (S)-1-(5,6-Difluoro-3-methylindazol-1-yl)-2-propylamine Fumarate] the figure was 7.20; with `CCc1nn(C[C@H](C)N)c2cc(SC)ccc12` [Example 8, (S)-1-(3-Ethyl-6-methylthioindazol-1-yl)-2-propylamine Fumarate], 7.33.

The next data set concerns the target T3, human 5-HT2C (Homo sapiens, UniProt P28335).
T3 sequence (P28335 33-458): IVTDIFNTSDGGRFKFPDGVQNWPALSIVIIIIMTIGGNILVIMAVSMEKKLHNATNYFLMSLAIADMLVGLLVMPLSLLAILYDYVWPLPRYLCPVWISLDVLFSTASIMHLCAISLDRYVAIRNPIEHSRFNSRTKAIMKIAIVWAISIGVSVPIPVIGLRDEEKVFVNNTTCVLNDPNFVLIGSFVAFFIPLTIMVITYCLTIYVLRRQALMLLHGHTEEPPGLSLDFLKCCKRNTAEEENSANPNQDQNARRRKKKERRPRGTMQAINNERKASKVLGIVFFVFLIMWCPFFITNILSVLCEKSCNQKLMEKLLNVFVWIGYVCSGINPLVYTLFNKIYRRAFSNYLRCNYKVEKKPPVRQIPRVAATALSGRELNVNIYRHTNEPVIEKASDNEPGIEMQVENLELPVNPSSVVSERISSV
The data set is described as follows: Functional activity, FLIPR calcium assay, CHO cells expressing human 5-HT2C. Type of data set: cell-based. The arrangement: expressed in transfected cells; host or cells: CHO cells. As to conditions: CHO cells, FLIPR, Fluo-3-AM; read-out: h5-HT2C EC50. On the procedure: as §1
For the compound `Cc1nn(CC(C)N)c2ccccc12` (racemic) [Example 1, (RS)-1-(3-Methylindazol-1-yl)-2-propylamine Fumarate], the pEC50 is 6.02.
Still for that read-out and setting: the result for `CCc1nn(C[C@H](C)N)c2cc(C(F)(F)F)ccc12` [Example 5, (S)-1-(3-Ethyl-6-trifluoromethylindazol-1-yl)-2-propylamine Fumarate] reads 6.06; that for `COc1ccc2c(C)nn(C[C@H](C)N)c2c1` [Example 2, (S)-1-(6-Methoxy-3-methylindazol-1-yl)-2-propylamine Fumarate], 7.36.
As for `Cc1nn(C[C@H](C)N)c2cc(Cl)c(F)cc12` [Example 4, (S)-1-(6-Chloro-5-fluoro-3-methylindazol-1-yl)-2-propylamine Fumarate], the negative logarithm of the EC50 (pEC50) is 7.32.
Still for that read-out and setting: the result for `Cc1nn(C[C@H](C)N)c2cc(F)c(F)cc12` [Example 3, (S)-1-(5,6-Difluoro-3-methylindazol-1-yl)-2-propylamine Fumarate] reads 7.08.
For `CCc1nn(C[C@H](C)N)c2cc(SC)ccc12` [Example 8, (S)-1-(3-Ethyl-6-methylthioindazol-1-yl)-2-propylamine Fumarate], the pEC50 is 8.10.
The same measure, in the same setting: with `CCc1nn(C[C@H](C)N)c2cc(F)ccc12` [Example 6, (S)-1-(3-Ethyl-6-fluoroindazol-1-yl)-2-propylamine Fumarate] the figure was 7.28; with `CCc1nn(C[C@H](C)N)c2cc(Br)ccc12` [Example 7, (S)-1-(6-Bromo-3-ethylindazol-1-yl)-2-propylamine Fumarate], 7.06.

Still in this data set, the particulars now being: CHO; maximum fluorescent signal relative to 10 μM 5-HT (defined as 100%); read-out: h5-HT2C Relative Efficacy (%).
On to `Cc1nn(CC(C)N)c2ccccc12` (racemic) [Example 1, (RS)-1-(3-Methylindazol-1-yl)-2-propylamine Fumarate], for which the Emax was determined as 55%.
On to `CCc1nn(C[C@H](C)N)c2cc(C(F)(F)F)ccc12` [Example 5, (S)-1-(3-Ethyl-6-trifluoromethylindazol-1-yl)-2-propylamine Fumarate], for which the Emax was 73%.
Still for that read-out and setting: with `COc1ccc2c(C)nn(C[C@H](C)N)c2c1` [Example 2, (S)-1-(6-Methoxy-3-methylindazol-1-yl)-2-propylamine Fumarate] the figure was 74%; with `Cc1nn(C[C@H](C)N)c2cc(Cl)c(F)cc12` [Example 4, (S)-1-(6-Chloro-5-fluoro-3-methylindazol-1-yl)-2-propylamine Fumarate], 76%.
The same measure, in the same setting: with `Cc1nn(C[C@H](C)N)c2cc(F)c(F)cc12` [Example 3, (S)-1-(5,6-Difluoro-3-methylindazol-1-yl)-2-propylamine Fumarate] the figure was 67%; with `CCc1nn(C[C@H](C)N)c2cc(SC)ccc12` [Example 8, (S)-1-(3-Ethyl-6-methylthioindazol-1-yl)-2-propylamine Fumarate], 81%; with `CCc1nn(C[C@H](C)N)c2cc(F)ccc12` [Example 6, (S)-1-(3-Ethyl-6-fluoroindazol-1-yl)-2-propylamine Fumarate], 47%.
Still for that read-out and setting: with `CCc1nn(C[C@H](C)N)c2cc(Br)ccc12` [Example 7, (S)-1-(6-Bromo-3-ethylindazol-1-yl)-2-propylamine Fumarate] the figure was 69%.

A further data set has as its target T3, human 5-HT2C. As to the kind of experiment: Binding to 5-HT2C receptor, [3H]-5-HT radioligand, Method (a). The arrangement: expressed in transfected cells; host or cells: CHO cell line. The note with it: 5-HT2C receptors in a CHO cell line, read-out: Method (a) Ki (2C). On the procedure: as §2
Method (a): For the binding to the 5-HT2C receptor the 5-HT2C receptors were radiolabeled with [^3H]-5-HT. The affinity of the compounds for 5-HT2C receptors in a CHO cell line was determined according to the procedure of D. Hoyer, G. Engel and H. O. Kalkman, European J Pharmacol., 1985, 118, 13-23.
As to `Cc1nn(CC(C)N)c2ccccc12` (racemic) [Example 1, (RS)-1-(3-Methylindazol-1-yl)-2-propylamine Fumarate], the pKi is 6.37.
On the same count and under the same terms, the result for `COc1ccc2c(C)nn(C[C@H](C)N)c2c1` [Example 2, (S)-1-(6-Methoxy-3-methylindazol-1-yl)-2-propylamine Fumarate] reads 6.68.
As for `Cc1nn(C[C@H](C)N)c2cc(Cl)c(F)cc12` [Example 4, (S)-1-(6-Chloro-5-fluoro-3-methylindazol-1-yl)-2-propylamine Fumarate], the pKi was 7.12.
As for `Cc1nn(C[C@H](C)N)c2cc(F)c(F)cc12` [Example 3, (S)-1-(5,6-Difluoro-3-methylindazol-1-yl)-2-propylamine Fumarate], the pKi is 6.85.
On the same count and under the same terms, with `CCc1nn(C[C@H](C)N)c2cc(SC)ccc12` [Example 8, (S)-1-(3-Ethyl-6-methylthioindazol-1-yl)-2-propylamine Fumarate] the figure was 7.43.
